According to patent publication US8603550B1, “Compositions for topical treatment” (priority 2013, dated 2013):

Key:
[1] = test system: Staphylococcus aureus ATCC 6538 (MSSA); assay: Zone of inhibition test (agar well); type: cell-based; conditions: S. aureus ATCC 6538; 7 mm well, about 0.2 ml product, 37° C., 24 hours
Experimental: (§1) An overnight culture of the test organism is diluted to 0.40 OD at 600 nm and then further diluted 10^−2 to obtain approximately 3×10^6 CFU/ml for the inoculation of TSA or SDA plates as follows: a 0.5 ml volume is spread across the surface of a sterile agar plate and allowed to dry. A 7 mm well is made in the center of the agar plate and approximately 0.2 ml of product is pipetted into the well. Additionally, Finipil is tested against S. aureus. The plates are incubated at 37° C. for 24 hours and the zones of inhibition are determined by measuring the diameter of the clear circular area around the product filled well.
(§2) *Becton Dickinson BBL Cefoxitin 30 microgram Sensi-Disk® sensitivity disks will be used to indicate susceptibility to Methicillin

[2] = test system: Staphylococcus aureus ATCC 33592 (MRSA); assay: Zone of inhibition test (agar well); type: cell-based; conditions: S. aureus ATCC 33592 (methicillin resistant); 7 mm well, 37° C., 24 hours
Experimental: as §1, §2

For `CO[C@@]1(NC(=O)Cc2cccs2)C(=O)N2C(C(=O)O)=C(COC(N)=O)CS[C@@H]21` [Cefoxitin disk, Cefoxitin], the “Zone of inhibition (diameter)” value [1] was 33 mm and the “Zone of inhibition (diameter)” value [2] was 10 mm.
